In patent US5225607A, “Insecticidal ethers” (Imperial Chemical Industries PLC, priority 1985, dated 1993):

How the values were obtained:
Assay type in all cases: in vivo
[1] = system: Nilaparvata lugens; experiment: Insecticidal test, Nilaparvata lugens (brown planthopper), contact; settings: 72 h, Cabbage leaf, 3 days, read-out: grading of mortality, NL
Procedure, shortened: (§1)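 Product applied at 500, 250 or 100 ppm as acetone solution diluted in water with 0.01% Lissapol NX wetting agent, onto pests and/or their host plant or food medium. Mortality or knockdown scored 1–3 days after treatment and graded A (80–100%; 70–100% for S. exigua), B (50–79%; 50–69% for S. exigua) or C (<50%).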

[2] = system: Diabrotica balteata; experiment: Insecticidal test, Diabrotica balteata (rootworm larvae), residual; settings: 72 h, filter paper/maize seed, 3 days, read-out: grading of mortality, DB
Procedure, shortened: as §1

[3] = system: Musca domestica; experiment: Knockdown test, Musca domestica (houseflies - adults); settings: cotton wool/sugar, 4 hours, read-out: grading of knockdown, MD/KD
Procedure, shortened: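 Adult houseflies were exposed to the compound as aqueous acetone preparations with 0.01% Lissapol NX wetting agent, at 500, 250 or 100 ppm. Knockdown was graded A (80–100%), B (50–79%) or C (<50%).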

[4] = system: Tetranychus urticae; experiment: Insecticidal/acaricidal test, Tetranychus urticae (spider mites - adult), contact; settings: 72 h, French bean leaf, 3 days, read-out: grading of mortality, TU
Procedure, shortened: as §1

[5] = system: Blattella germanica; experiment: Insecticidal test, Blattella germanica (cockroach nymphs), residual; settings: 72 h, plastic pot, 3 days, read-out: grading of mortality, BG
Procedure, shortened: as §1

[6] = system: Spodoptera exigua; experiment: Insecticidal test, Spodoptera exigua (lesser armyworm), residual; settings: 72 h, cotton leaf, 3 days, read-out: grading of mortality, SE
Method: The activity of the Product was determined using a variety of insect and acarine pests. The Product was used in the form of liquid preparations containing 500, 250 or 100 parts per million (ppm) by weight of the Product. The preparations were made by dissolving the Product in acetone and diluting the solutions with water containing 0.01% by weight of a wetting agent sold under the trade name "LISSAPOL" NX until the liquid preparations contained the required concentratio of the Product. "Lissapol" is a Registered Trade Mark.
The test procedure adopted with regard to each pest was basically the same and comprised supporting a number of the pests on a medium which was usually a host plant or a foodstuff on which the pests feed, and treating either or both the pests and the medium with the preparations. The mortality of the pests was then assessed at periods usually varying from one to three days after the treatment.
The results of the tests are given in Table IV for each of the Products, at the rate in parts per million given in the second column as a grading of mortality designated as A, B or C wherein A indicates 80-100% mortality or knockdown (70-100% in the case of Spodoptera exigua), B indicates 50-79% mortality or knockdown (50-69% in the case of Spodoptera exigua) and C indicates less than 50% mortality or knockdown.
In Table IV the pest organism used is designated by a letter code and the pest species, the support medium or food, and the type and duration of test is given in Table III.

[7] = system: Myzus persicae; experiment: Insecticidal test, Myzus persicae (aphids), contact; settings: 72 h, Chinese Cabbage leaf, 3 days, read-out: grading of mortality, MP
Procedure, shortened: as §1

[8] = system: Musca domestica; experiment: Insecticidal test, Musca domestica (houseflies - adults), contact; settings: 24 h, cotton wool/sugar, 1 day, read-out: grading of mortality, MD
Procedure, shortened: as §1

[9] = system: Heliothis virescens; experiment: whole plant or invertebrate; settings: in Gossypium hirsutum, 72 h, read-out: grading of mortality, HV
Procedure, shortened: as §1

Compound | mortality at 500 ppm [1] | mortality at 500 ppm [2] | pest or weed control at 500 ppm [3] | mortality at 500 ppm [4] | mortality at 500 ppm [5] | mortality at 500 ppm [6] | mortality at 500 ppm [7] | mortality at 500 ppm [8] | mortality at 500 ppm [9] | also measured
CCOc1ccc(C(COCc2cccc(Cc3ccccc3)c2)C(F)(F)F)cc1 (stereo not drawn) [Compound 12, 1,1,1-Trifluoro-2-(4-ethoxyphenyl)-3-(3-benzylbenzyloxy)propane] | 80 to 100% | 80 to 100% | 80 to 100% | < 50% | 80 to 100% | 70 to 100% | 80 to 100% | 80 to 100% | 80 to 100% | 
CCOc1c(F)cc(C(O)(COCc2cccc(Oc3ccccc3)c2)C(F)(F)F)cc1F (racemic) [Compound 176, (RS)-1,1,1-trifluoro-2-(3,5-difluoro-4-ethoxyphenyl)-3-(3-phenoxybenzyloxy)propan-2-ol] | < 50% | 80 to 100% | 80 to 100% | < 50% | < 50% | 70 to 100% | < 50% | < 50% | 50 to 79% | 
FC(F)(F)C(Cl)(COCc1cccc(Oc2ccc(Cl)cc2)c1)c1ccc2c(c1)OCO2 (stereo not drawn) [Compound 65, 1,1,1-Trifluoro-2-chloro-2-(3,4-methylenedioxyphenyl)-3-(3-(4-chlorophenoxy)-benzyloxy)propane] | < 50% | < 50% | < 50% | < 50% | 80 to 100% | 50 to 69% | < 50% | < 50% | 80 to 100% | 
Fc1ccc(COCC(c2ccc(OC(F)(F)F)cc2)C(F)(F)F)cc1Oc1ccccc1 (stereo not drawn) [Compound 25, 1,1,1-Trifluoro-2-(4-trifluoromethoxyphenyl)-3-(3-phenoxy-4-fluorobenzyloxy)propane] |  |  |  |  |  |  |  |  |  | mortality at 100 ppm [1]: 80 to 100%; mortality at 100 ppm [2]: 80 to 100%; pest or weed control at 100 ppm [3]: 80 to 100%; mortality at 100 ppm [4]: 80 to 100%; mortality at 100 ppm [5]: 80 to 100%; mortality at 100 ppm [6]: 70 to 100%; mortality at 100 ppm [7]: 80 to 100%; mortality at 100 ppm [8]: 80 to 100%; mortality at 100 ppm [9]: 80 to 100%
OC(COCc1cccc(Oc2ccccc2)n1)(c1ccc(OC(F)(F)F)cc1)C(F)(F)F (stereo not drawn) [Compound 136, 1,1,1-Trifluoro-2-(4-trifluoromethoxyphenyl)-3-(6-phenoxy-2-pyridylmethyloxy)propan-2-ol] | < 50% | 80 to 100% | 80 to 100% | < 50% | < 50% | < 50% | < 50% | 80 to 100% | 50 to 79% | 
FC(F)(F)C(COCc1cccc(Oc2ccccc2)c1)c1ccc2c(c1)OCO2 (stereo not drawn) [Compound 31, 1,1,1-Trifluoro-2-(3,4-methylenedioxyphenyl)-3-(3-phenoxybenzyloxy)propane] | 80 to 100% | 80 to 100% | 80 to 100% | < 50% | 80 to 100% | 70 to 100% | 80 to 100% | 80 to 100% | 80 to 100% | 
FC(F)(F)Oc1ccc(C(COCc2cccc(Oc3ccccc3)n2)C(F)(F)F)cc1 (stereo not drawn) [Compound 28, 1,1,1-Trifluoro-2-(4-trifluoromethoxyphenyl)-3-(6-phenoxy-2-pyridylmethyloxy)propane] |  |  |  |  |  |  |  |  |  | mortality at 100 ppm [1]: 80 to 100%; mortality at 100 ppm [2]: 80 to 100%; pest or weed control at 100 ppm [3]: 80 to 100%; mortality at 100 ppm [4]: < 50%; mortality at 100 ppm [5]: 80 to 100%; mortality at 100 ppm [6]: 70 to 100%; mortality at 100 ppm [7]: 80 to 100%; mortality at 100 ppm [8]: 80 to 100%; mortality at 100 ppm [9]: 80 to 100%
OC(COCc1cccc(Oc2ccc(Cl)cc2)c1)(c1ccc(OC(F)(F)F)cc1)C(F)(F)F (stereo not drawn) [Compound 135, 1,1,1-Trifluoro-2-(4-trifluoromethoxyphenyl)-3-(3-(4-chlorophenoxy)benzyloxy)propan-2-ol] |  |  |  |  |  |  |  |  |  | mortality at 250 ppm [1]: < 50%; mortality at 250 ppm [2]: < 50%; pest or weed control at 250 ppm [3]: 80 to 100%; mortality at 250 ppm [4]: < 50%; mortality at 250 ppm [5]: < 50%; mortality at 250 ppm [6]: 70 to 100%; mortality at 250 ppm [7]: < 50%; mortality at 250 ppm [8]: < 50%; mortality at 250 ppm [9]: 80 to 100%
CCOc1ccc(C(COCc2cccc(Oc3ccc(F)cc3F)c2)C(F)(F)F)cc1 (stereo not drawn) [Compound 10, 1,1,1-Trifluoro-2-(4-ethoxyphenyl)-3-(3-(2,4-difluorophenoxy)benzyloxy)propane] |  |  |  |  |  |  |  |  |  | mortality at 250 ppm [1]: 80 to 100%; mortality at 250 ppm [2]: 80 to 100%; pest or weed control at 250 ppm [3]: 80 to 100%; mortality at 250 ppm [4]: < 50%; mortality at 250 ppm [5]: 80 to 100%; mortality at 250 ppm [6]: 70 to 100%; mortality at 250 ppm [7]: 50 to 79%; mortality at 250 ppm [8]: 80 to 100%; mortality at 250 ppm [9]: 80 to 100%
CCOc1c(F)cc(C(COCc2ccc(F)c(Oc3ccccc3)c2)C(F)(F)F)cc1F (racemic) [Compound 166, (RS)-1,1,1-Trifluoro-2-(3,5-difluoro-4-ethoxyphenyl)-3-(3-phenoxy-4-fluorobenzyloxy)propane] | 80 to 100% | 80 to 100% | 80 to 100% | 80 to 100% | 80 to 100% | 70 to 100% | 50 to 79% | 80 to 100% | 80 to 100% | 
Fc1ccc(COC=C(c2ccc(OC(F)(F)F)cc2)C(F)(F)F)cc1Oc1ccccc1 [Compound 462, 1,1,1-trifluoro-2-(4-trifluoromethoxyphenyl)-3-(3-phenoxy-4-fluorobenzyloxy)prop-2-ene] |  |  |  |  |  |  |  |  |  | mortality at 100 ppm [1]: < 50%; mortality at 100 ppm [2]: 50 to 79%; pest or weed control at 100 ppm [3]: 80 to 100%; mortality at 100 ppm [4]: < 50%; mortality at 100 ppm [5]: 80 to 100%; mortality at 100 ppm [6]: 70 to 100%; mortality at 100 ppm [7]: < 50%; mortality at 100 ppm [8]: 80 to 100%; mortality at 100 ppm [9]: 80 to 100%
Fc1ccc(C(COCc2ccc(F)c(Oc3ccccc3)c2)C(F)(F)F)cc1 (stereo not drawn) [Compound 18, 1,1,1-Trifluoro-2-(4-fluorophenyl)-3-(3-phenoxy-4-fluorobenzyloxy)propane] |  |  |  |  |  |  |  |  |  | mortality at 250 ppm [1]: 80 to 100%; mortality at 250 ppm [2]: 80 to 100%; pest or weed control at 250 ppm [3]: 80 to 100%; mortality at 250 ppm [4]: 80 to 100%; mortality at 250 ppm [5]: 80 to 100%; mortality at 250 ppm [6]: 70 to 100%; mortality at 250 ppm [7]: 80 to 100%; mortality at 250 ppm [8]: 80 to 100%; mortality at 250 ppm [9]: 80 to 100%
OC(COCc1cccc(Oc2ccccc2)c1)(c1ccc2c(c1)OCO2)C(F)(F)F (stereo not drawn) [Compound 128, 1,1,1-trifluoro-2-(3,4-methylenedioxyphenyl)-3-(3-phenoxybenzyloxy)propan-2-ol] | < 50% | 50 to 79% | < 50% | < 50% | < 50% | 70 to 100% | < 50% | 50 to 79% | 80 to 100% | 
